Here are results for seven compounds from US5196446A (priority 1991, dated 1993).

The target of data set [1] is T1, EGF receptor (Homo sapiens, UniProt P00533). Conditions: read-out: Km for ATP in autophosphorylation; 15° C.; 10-s assay. As for the experimental part:
ATP and EGF Dependence of Autophosphorylation
With use of the 10-s assay protocol, the EGF concentration dependence of EGFRK autophosphorylation is determined.

In data set [2] the target is T2, EGF receptor tyrosine kinase (Homo sapiens, UniProt P00533).
T2 construct: WGA-purified EGF receptor from A431 cells; endogenous in cells; host or cells: A431 cells (solubilized, receptor enriched on WGA-agarose)
Format: biochemical. Particulars: for IC50: read-out: IC50 (concentration of inhibitor required to inhibit 50% of polyGAT phosphorylation).

The target in data set [3] is T1, EGF receptor. Put plainly: Inhibition of EGFR autophosphorylation (A431 cell lysate, EGF stimulation). Also on record: EGF receptor in membranes of A431 cells; host or cells: membranes of A431 cells. The format is biochemical. As for the experimental part:
Inhibition of EGFR Autophosphorylation
A431 cells were grown to confluence on human fibronectin coated tissue culture dishes. After washing 2 times with ice-cold PBS, cells were lysed by the addition of 500 μl/dish of lysis buffer (50 mmol Hepes, pH 7.5, 150 mmol NaCl, 1.5 mmol Mg Cl2, 1 mmol EGTA, 10% glycerol, 1% triton X-100, 1 mmol PMSF, 1 mg/ml aprotinin, I mg/ml leupeptin) and incubating 5 minutes at 4° C. After EGF stimulation ([…] 10 minutes at 37° C.) immunoprecipitation was performed with anti EGF-R (Ab 108) and the autophosphorylation reaction (50 μl aliquots, 3 μCi [γ-^32 P]ATP) sample was carried out in the presence of 2 or 10 μM of compound, for 2 minutes at 4° C. The reaction was stopped by adding hot electrophoresis sample buffer. SDS-PAGE analysis (7.5% els) was followed by autoradiography and the reaction was quantitated by densitometry scanning of the x-ray films. In order to test the compounds for selective inhibition, the procedure is repeated using PDGF stimulation in place of EGF stimulation.

In data set [4] the target is T1, EGF receptor. Also on record: EGF receptor in membranes of A431 cells; host or cells: membranes of A431 cells. Conditions: cited from earlier work.
Data set [5] has as its system cyclic adenosine 3',5'-monophosphate (cAMP)-dependent protein kinase. Particulars: in words; compared with EGF receptor autophosphorylation; cited from earlier work.
The conditions of data set [6]: as a result of inhibiting other protein kinases; cited from earlier work.
The next data set relates to other protein kinases. Conditions: PTK inhibitors which compete with ATP; cited from earlier work.

A word on the Km: it is the substrate concentration at which the rate is half of its maximum. Consider `Nc1ncnc2c1ncn2[C@@H]1O[C@H](COP(=O)(O)OP(=O)(O)OP(=O)(O)O)[C@@H](O)[C@H]1O` [ATP, adenosine triphosphate], for which the Michaelis constant (Km) at EGF receptor [1] was determined as 7.2 µM; in data set [2] (read-out: Km for ATP in the poly(GAT) assay), 2.9 µM.
Take `N#CC(C#N)=Cc1c[nH]cn1` [Example 3, 4-Imidazolidene malononitrile]: the IC50 in data set [2] came to 2600 µM.
The same measure, in the same setting: to `N#CC(C#N)=Cc1ccc2[nH]ccc2c1` [Example 5, 5-Indolidene malononitrile] belongs 2200 µM.
Take `N#CC(=Cc1ccc2c(c1)OCO2)c1ccccn1` [Example 8, 2-(2-pyridyl)-3-[3,4-(methylenedioxy)phenyl]-2-propenenitrile]: the IC50 on EGF receptor [3] stood at 1 µM.
In the case of `O=CN/C=C/c1cc(O)ccc1O` [erbstatin], the “concentration required to inhibit EGF receptor autophosphorylation” value at EGF receptor [4] (in words, compared with cAMP-dependent protein kinase) is listed as “Low concentrations”. The “inhibition of EGF receptor autophosphorylation” value on EGF receptor [4] (membranes of A431 cells) is “inhibits the autophosphorylation of the EGF receptor”. The “concentration required to inhibit cAMP-dependent protein kinase” value in data set [5] is on record as “much higher concentrations”.
`O=c1c(-c2ccc(O)cc2)coc2cc(O)cc(O)c12` [genistein]: the cytotoxicity entry in data set [6] is recorded as “highly cytotoxic”. Further, in the data set on other protein kinases, the “inhibition of other protein kinases” value is recorded as “inhibit other protein kinases”.
For the compound `O=c1c(O)c(-c2ccc(O)c(O)c2)oc2cc(O)cc(O)c12` [quercetin], the cytotoxicity entry in data set [6] is “highly cytotoxic”. In addition, the “inhibition of other protein kinases” value in the data set on other protein kinases was “inhibit other protein kinases”.
